In paper PMC6447767, “Simultaneous determination of the potent anti-tuberculosis regimen—Pyrazinamide, ethambutol, protionamide, clofazimine in beagle dog plasma using LC–MS/MS method coupled with 96-well format plate” (Journal of Pharmaceutical and Biomedical Analysis, 2019):
Where two headings read alike, the source gives them in different places.

Legend:
in vivo = settings: beagle, dog, po
[1] = Stability of analytes in Beagle dog plasma (freeze-thaw, long-term, auto-sampler, bench-top); settings: for %Stability recoveries (Mean ± SD), Freeze-thaw (−80 °C) / %Stability recoveries (Mean ± SD), Bench-top 4 h (4 °C) / %Stability recoveries (Mean ± SD), Long-term 40 days (−80 °C) / Stability accuracy under the test conditions: Beagle dog plasma; for %Stability recoveries (Mean ± SD), Freeze-thaw (−80 °C): 3 freeze-thaw cycles; for %Stability recoveries (Mean ± SD), Freeze-thaw (−80 °C) / %Stability recoveries (Mean ± SD), Bench-top 4 h (4 °C) / %Stability recoveries (Mean ± SD), Long-term 40 days (−80 °C) / %Stability recoveries (Mean ± SD), Auto-sampler 27 h (18 °C): n = 3; for %Stability recoveries (Mean ± SD), Auto-sampler 27 h (18 °C): processed Beagle dog plasma samples; for Stability accuracy under the test conditions: summary over all stability conditions and QC levels
[2] = Pharmacokinetic study of the PZA-EMB-PTO-CFZ combination after oral administration; settings: beagle, dog, plasma, in combination; for AUC: AUC0-τ, 0 to 24/48 h; for AUC / AUC(0-inf) / Cmax / half-life: n = 6; for AUC(0-inf): AUC0-∞; for Tmax: n = 6, mean ± S.D.
[3] = Solubility in organic solvents noted during sample preparation
[4] = beagle, dog
[5] = High Dose (double of standard dose)
[6] = Low Dose (half of standard dose)
[7] = T1/2, High Dose (double of standard dose)
[8] = T1/2, Low Dose (half of standard dose)
[9] = T1/2, Medium Dose (standard dose)
[10] = Medium Dose (standard: PZA 93.2, EMB 20.7, PTO 15.5, CFZ 5.2 mg/kg)

Row | Structure (SMILES) | %Stability recoveries (Mean ± SD), Freeze-thaw (−80 °C) ([1]; HQC) | %Stability recoveries (Mean ± SD), Bench-top 4 h (4 °C) ([1]; HQC) | %Stability recoveries (Mean ± SD), Long-term 40 days (−80 °C) ([1]; HQC) | %Stability recoveries (Mean ± SD), Auto-sampler 27 h (18 °C) ([1]; HQC) | %Stability recoveries (Mean ± SD), Freeze-thaw (−80 °C) ([1]; LQC) | %Stability recoveries (Mean ± SD), Bench-top 4 h (4 °C) ([1]; LQC) | %Stability recoveries (Mean ± SD), Long-term 40 days (−80 °C) ([1]; LQC) | %Stability recoveries (Mean ± SD), Auto-sampler 27 h (18 °C) ([1]; LQC) | Stability accuracy under the test conditions [1] | AUC [2, 5] | AUC [2, 6] | AUC ([2]; Medium Dose (standard dose)) | AUC(0-inf) [2, 5] | AUC(0-inf) [2, 6] | AUC(0-inf) ([2]; Medium Dose (standard dose)) | Cmax [2, 5] | Cmax [2, 6] | Cmax ([2]; Medium Dose (standard dose)) | half-life [2, 7] | half-life [2, 8] | further results
1 | CC(C)/N=c1\cc2n(-c3ccc(Cl)cc3)c3ccccc3nc-2cc1Nc1ccc(Cl)cc1 [CFZ, clofazimine] | 102.8 ± 2.3% | 96.1 ± 2.0% | 98.5 ± 2.3% | 103.3 ± 1.3% | 113.2 ± 3.8% | 92.5 ± 4.6% | 91.3 ± 1.0% | 95.3 ± 8.6% | 86.6–113.2% | 0.143 ± 0.0371 µg·h/mL | 0.0175 ± 0.00967 µg·h/mL | 0.0422 ± 0.0177 µg·h/mL | 0.147 ± 0.0374 µg·h/mL | 0.0238 ± 0.0118 µg·h/mL | 0.0531 ± 0.0221 µg·h/mL | 21.6 ± 7.32 ng/mL | 3.69 ± 1.32 ng/mL | 7.24 ± 2.58 ng/mL | 3.63 ± 1.49 h | 3.41 ± 1.31 h | Tmax (in vivo): 3.17 ± 0.98 h; half-life [2, 9]: 4.03 ± 1.16 h
2 | CC[C@@H](CO)NCCN[C@@H](CC)CO [EMB, ethambutol] | 98.0 ± 2.6% | 86.6 ± 0.9% | 101.8 ± 0.9% | 94.0 ± 5.0% | 106.6 ± 6.2% | 100.5 ± 4.8% | 109.3 ± 4.7% | 103.2 ± 3.6% | 86.6–113.2% | 58.7 ± 14.8 µg·h/mL | 7.88 ± 1.22 µg·h/mL | 18.5 ± 2.35 µg·h/mL | 59.2 ± 15 µg·h/mL | 7.98 ± 1.23 µg·h/mL | 18.7 ± 2.34 µg·h/mL | 21100 ± 4230 ng/mL | 2930 ± 890 ng/mL | 8720 ± 1150 ng/mL | 12 ± 0.62 h | 11.8 ± 1.31 h | half-life [2, 9]: 12.7 ± 1.88 h; Tmax [2, 5]: 0.92 ± 0.38 h; Tmax [2, 6]: 1.25 ± 0.94 h; Tmax [2, 10]: 0.83 ± 0.2 h; Solubility in acetonitrile [3]: poor solubility
3 | CCCc1cc(C(N)=S)ccn1 [PTO, protionamide] |  |  |  |  |  |  |  |  |  |  |  |  |  |  |  |  |  |  |  |  | Stability accuracy under the test conditions [4]: 86.6–113.2%
4 | NC(=O)c1cnccn1 [PZA, pyrazinamide] | 98.6 ± 0.7% | 95.4 ± 2.5% | 88.6 ± 0.9% | 102.5 ± 3.3% | 106.3 ± 3.0% | 95.2 ± 3.4% | 97.9 ± 2.0% | 101.1 ± 1.6% | 86.6–113.2% | 1970 ± 298 µg·h/mL | 50.2 ± 7.6 µg·h/mL | 1080 ± 187 µg·h/mL | 1970 ± 298 µg·h/mL | 50.2 ± 7.6 µg·h/mL | 1080 ± 188 µg·h/mL | 241000 ± 19200 ng/mL | 57000 ± 11900 ng/mL | 125000 ± 6700 ng/mL | 2.62 ± 0.1 h | 2.82 ± 0.08 h | half-life [2, 9]: 2.7 ± 0.21 h; Tmax [2, 5]: 1.33 ± 0.26 h; Tmax [2, 6]: 1.13 ± 0.54 h; Tmax [2, 10]: 1.04 ± 0.6 h
